Source: US11666577B2 (National Institute of Biological Sciences, Beijing, priority 2018, dated 2023)
Read-outs that look alike come from different tables or passages of the source.

Test system: HT-29 cells
Assay: Necroptosis assay (TNF-α/Smac mimetic/z-VAD, TSZ-induced) in HT-29 cells
Type: cell-based, human
Method: Methods: HT-29 cells were cultured in McCoy's 5 A culture medium (Invitrogen). On day one, HT-29 cells were plated in 96-well assay plates at density of 2,500-3,500 cells per well. On day two, necrosis were induced by adding 20 ng/ml TNF-α (T), 100 nM Smac mimetic (S), and […] z-VAD (Z). At the same time, 10 mM compound from a chemical library of ˜200,000 compounds was delivered into each well. After 24 hrs treatment, cell viability was determined by measuring ATP level using the Cell Titer-Glo Luminescent Cell Viability Assay kit. A CellTiter-Glo Assay (Promega) was performed according to the manufacturer's instructions. Luminescence was recorded with a PerkinElmer EnSpire Multimode Plate Reader. Survived cells were normalized to those cells treated with DMSO. RIPA-56 was used as a positive control for screening necroptosis inhibitors. Data are represented as mean±standard deviation of duplicates.
In previous work, we performed a cell-based high-throughput screen to identify necroptosis inhibitors using a chemical library of ˜200,000 compounds and identified multiple compounds that protected human colorectal adenocarcinoma (HT-29) cells from TNF-α/Smac mimetic/Z-VAD-fmk (TSZ)-induced necroptosis.^[4]
The anti-necroptosis potency of compounds 7-12 and 14-18 was evaluated in the HT-29 cell line; the EC50 values are shown in Table B.
[a] Necroptosis was induced in HT-29 cells for 24 h; the EC50 values given here are the mean values of at least three independent analyses.

[1] = Homo sapiens, Series 2 (Table 2) compounds, HT-29 necroptosis assay, read-out: Series 2 compound necroptosis activity
[2] = Series 1 (Table 1) compounds 1-146, HT-29 cells, TNF-α/Smac mimetic/z-VAD, 24 hrs, cell viability by ATP level, read-out: Series 1 compound necroptosis activity
[3] = Homo sapiens, Series 1 (Table 1) compounds 1-146, HT-29 cells, TNF-α/Smac mimetic/z-VAD, 24 hrs, cell viability by ATP level, read-out: Series 1 compound necroptosis activity
[4] = Series 1 (Table 1) compounds 147-176, activity extrapolated, read-out: Series 1 compound necroptosis activity (extrapolated)
[5] = Series 1 (Table 1) compounds, HT-29 cells, TNF-α/Smac mimetic/z-VAD, 24 hrs, cell viability by ATP level, read-out: Series 1 compound necroptosis activity

Structure (SMILES): Cn1c(=O)c2c(nc(S(C)(=O)=O)n2C)n(CC#Cc2cc(NC(=O)CN3CCOCC3)cc(NC(=O)CN3CCOCC3)c2)c1=O [Compound 26]
- EC50 [1]: 0.001 to 0.1 µM

Structure (SMILES): Cn1c(S(C)(=O)=O)nc2c1c(=O)[nH]c(=O)n2C [Compound 88, 3,7-dimethyl-8-(methylsulfonyl)-1H-purine-2,6(3H,7H)-dione]
- EC50 [2]: 1 to 1000 µM

Structure (SMILES): Cn1c(=O)[nH]c2nc(S(C)(=O)=O)n(C)c2c1=O [Compound 99, 1,7-dimethyl-8-(methylsulfonyl)-1H-purine-2,6(3H,7H)-dione]
- EC50 [3]: 1 to 100 µM

Structure (SMILES): COCCn1c(S(C)(=O)=O)nc2c1c(=O)n(C)c(=O)n2C [Compound 6]
- EC50 [1]: 10 to 100 µM

Structure (SMILES): C#CCn1c(=O)n(C)c(=O)c2c1nc(S(C)(=O)=O)n2C [Compound 106, 1,7-dimethyl-8-(methylsulfonyl)-3-(prop-2-ynyl)-1H-purine-2,6(3H,7H)-dione]
- EC50 [3]: 1 to 10 µM

Structure (SMILES): CCOc1ccc(OC)cc1CS(=O)(=O)c1nc2c(c(=O)n(C)c(=O)n2C)n1C [Compound 65, 8-(2-ethoxy-5-methoxybenzylsulfonyl)-1,3,7-trimethyl-1H-purine-2,6(3H,7H)-dione]
- EC50 [2]: 1 to 1000 µM

Structure (SMILES): CNC/C=C/c1ccc(Cn2c(=O)n(C)c(=O)c3c2nc(S(=O)(=O)CC2CC2)n3C)s1 [Compound 173]
- EC50 [4]: 1 to 1000 µM

Structure (SMILES): Cn1c(=O)c2c(nc(S(=O)(=O)Cc3cccc(Cl)c3)n2C)n(C)c1=O [Compound 30, 8-(3-chlorobenzylsulfonyl)-1,3,7-trimethyl-1H-purine-2,6(3H,7H)-dione]
- EC50 [2]: 1 to 1000 µM

Structure (SMILES): Cn1c(=O)c2c(nc(S(=O)(=O)CC3CC3)n2C)n(Cc2cccnc2)c1=O [Compound 143, 8-((cyclopropylmethyl)sulfonyl)-1,7-dimethyl-3-(pyridin-3-ylmethyl)-1H-purine-2,6(3H,7H)-dione]
- EC50 [2]: 1 to 1000 µM

Structure (SMILES): CCn1c(SCC2CC2)nc2c1c(=O)n(C)c(=O)n2C [Compound 81, 8-(cyclopropylmethylthio)-7-ethyl-1,3-dimethyl-1H-purine-2,6(3H,7H)-dione]
- EC50 [2]: 1 to 1000 µM

Structure (SMILES): Cn1c(=O)c2c(nc(S(C)(=O)=O)n2C)n(CC#Cc2cccc3[nH]ccc23)c1=O [Compound 169]
- EC50 [4]: 1 to 1000 µM

Structure (SMILES): Cn1c(=O)c2c(nc(S(C)(=O)=O)n2C)n(CC#Cc2cc(F)cc(NC(=O)CN3CCOCC3)c2)c1=O [Compound 20]
- EC50 [1]: 0.001 to 0.1 µM

Structure (SMILES): CCCS(=O)(=O)c1nc2c(c(=O)n(C)c(=O)n2Cc2ccc(-c3cccc(NCC)c3)s2)n1C [Compound 176]
- EC50 [4]: 1 to 1000 µM

Structure (SMILES): Cn1c(=O)c2c(nc(S(=O)(=O)CC3CC3)n2C)n(Cc2ccncc2)c1=O [Compound 144, 8-((cyclopropylmethyl)sulfonyl)-1,7-dimethyl-3-(pyridin-4-ylmethyl)-1H-purine-2,6(3H,7H)-dione]
- EC50 [2]: 1 to 1000 µM

Structure (SMILES): COc1cc(CS(=O)(=O)c2nc3c(c(=O)n(C)c(=O)n3C)n2C)c(OC)cc1Cl [Compound 70, 8-(4-chloro-2,5-dimethoxybenzylsulfonyl)-1,3,7-trimethyl-1H-purine-2,6(3H,7H)-dione]
- EC50 [2]: 1 to 1000 µM

Structure (SMILES): COc1cccc(CS(=O)(=O)c2nc3c(c(=O)n(C)c(=O)n3C)n2C)c1 [Compound 36, 8-(3-methoxybenzylsulfonyl)-1,3,7-trimethyl-1H-purine-2,6(3H,7H)-dione]
- EC50 [2]: 1 to 1000 µM

Structure (SMILES): Cn1c(=O)c2c(nc(S(=O)(=O)Cc3c(Cl)cccc3Cl)n2C)n(C)c1=O [Compound 57, 8-(2,6-dichlorobenzylsulfonyl)-1,3,7-trimethyl-1H-purine-2,6(3H,7H)-dione]
- EC50 [2]: 1 to 1000 µM

Structure (SMILES): CC(C)S(=O)(=O)c1nc2c(c(=O)n(C)c(=O)n2C)n1C [Compound 18]
- EC50 [3]: 1 to 100 µM

Structure (SMILES): Cn1c(=O)c2c(nc(S(=O)(=O)CC3CC3)n2C)n(CC#Cc2cccc(NC(=O)OC(C)(C)C)c2)c1=O [Compound 123, tert-butyl(3-(3-(8-((cyclopropylmethyl)sulfonyl)-1,7-dimethyl-2,6-dioxo-1,2,6,7-tetrahydro-3H-purin-3-yl)prop-1-yn-1-yl)phenyl)carbamate]
- EC50 [5]: 0.001 to 1 µM

Structure (SMILES): Cn1c(=O)c2c(nc(S(=O)(=O)CC3CC3)n2C)n(Cc2ccccc2Cl)c1=O [Compound 136, 3-(2-chlorobenzyl)-8-((cyclopropylmethyl)sulfonyl)-1,7-dimethyl-1H-purine-2,6(3H,7H)-dione]
- EC50 [3]: 1 to 100 µM

Structure (SMILES): CNCCS(=O)(=O)c1nc2c(c(=O)n(C)c(=O)n2CC#Cc2cccc(O)c2)n1C [Compound 151]
- EC50 [4]: 1 to 1000 µM

Structure (SMILES): Cn1c(=O)c2c(nc(S(=O)(=O)CC3CC3)n2C)n(Cc2ccccc2Br)c1=O [Compound 139, 3-(2-bromobenzyl)-8-((cyclopropylmethyl)sulfonyl)-1,7-dimethyl-1H-purine-2,6(3H,7H)-dione]
- EC50 [3]: 1 to 100 µM

Structure (SMILES): Cn1c(=O)c2c(nc(S(C)(=O)=O)n2C)n(CC#Cc2cccc(NC(=O)CN3CCOCC3)c2)c1=O [Compound 17]
- EC50 [1]: 0.001 to 0.1 µM

Structure (SMILES): Cn1c(=O)c2c(nc(S(C)(=O)=O)n2C)n(CC#Cc2ccc(=O)[nH]c2)c1=O [Compound 165]
- EC50 [4]: 1 to 1000 µM

Structure (SMILES): CCCS(=O)(=O)c1nc2c(c(=O)n(C)c(=O)n2C)n1CC [Compound 80, 7-ethyl-1,3-dimethyl-8-(propylsulfonyl)-1H-purine-2,6(3H,7H)-dione]
- EC50 [2]: 1 to 1000 µM

Structure (SMILES): Cn1c(=O)c2c(nc(S(=O)(=O)Cc3ccc(C(N)=O)cc3)n2C)n(C)c1=O [Compound 47, 4-((1,3,7-trimethyl-2,6-dioxo-2,3,6,7-tetrahydro-1H-purin-8-ylsulfonyl)methyl)benzamide]
- EC50 [2]: 1 to 1000 µM

Structure (SMILES): Cn1c(=O)c2c(nc(S(=O)(=O)Cc3cccc(C(N)=O)c3)n2C)n(C)c1=O [Compound 46, 3-((1,3,7-trimethyl-2,6-dioxo-2,3,6,7-tetrahydro-1H-purin-8-ylsulfonyl)methyl)benzamide]
- EC50 [2]: 1 to 1000 µM

Structure (SMILES): Cn1c(=O)c2c(nc(S(=O)(=O)CC3CC3)n2C)n(CC#Cc2ccc(Br)cc2)c1=O [Compound 122, 3-(3-(4-bromophenyl)prop-2-yn-1-yl)-8-((cyclopropylmethyl)sulfonyl)-1,7-dimethyl-3,7-dihydro-1H-purine-2,6-dione]
- EC50 [5]: 0.001 to 1 µM

Structure (SMILES): COc1ccc(OC)c(Cn2c(=O)n(C)c(=O)c3c2nc(S(=O)(=O)Cc2cc(OC)ccc2OC)n3C)c1 [Compound 129, 3-(2,5-dimethoxybenzyl)-8-(2,5-dimethoxybenzylsulfonyl)-1,7-dimethyl-1H-purine-2,6(3H,7H)-dione]
- EC50 [3]: 1 to 100 µM

Structure (SMILES): Cn1c(=O)c2c(nc(S(=O)(=O)Cc3ccc(C#N)cc3)n2C)n(C)c1=O [Compound 44, 4-((1,3,7-trimethyl-2,6-dioxo-2,3,6,7-tetrahydro-1H-purin-8-ylsulfonyl)methyl)benzonitrile]
- EC50 [2]: 1 to 1000 µM

Structure (SMILES): Cn1c(=O)c2c(nc(S(=O)(=O)CC3CC3)n2C)n(CC#Cc2cccc(N)c2)c1=O [Compound 124, 3-(3-(3-aminophenyl)prop-2-yn-1-yl)-8-((cyclopropylmethyl)sulfonyl)-1,7-dimethyl-3,7-dihydro-1H-purine-2,6-dione]
- EC50 [5]: 0.001 to 1 µM

Structure (SMILES): Cn1c(=O)c2c(nc(S(=O)(=O)CCc3ccccc3)n2C)n(C)c1=O [Compound 22, 1,3,7-trimethyl-8-(phenethylsulfonyl)-1H-purine-2,6(3H,7H)-dione]
- EC50 [2]: 1 to 1000 µM

Structure (SMILES): Cn1c(=O)c2c(nc(S(=O)(=O)Cc3ccccc3Cl)n2C)n(C)c1=O [Compound 29, 8-(2-chlorobenzylsulfonyl)-1,3,7-trimethyl-1H-purine-2,6(3H,7H)-dione]
- EC50 [2]: 1 to 1000 µM

Structure (SMILES): Cn1c(=O)c2c(nc(S(=O)(=O)CC3CC3)n2C)n(Cc2cn(/C=C/CN)nn2)c1=O [Compound 172]
- EC50 [4]: 1 to 1000 µM

Structure (SMILES): Cn1c(=O)c2nc(S(C)(=O)=O)n(C)c2n(C)c1=O [Compound 146, 1,3,9-trimethyl-8-(methylsulfonyl)-3,9-dihydro-1H-purine-2,6-dione]
- EC50 [2]: 1 to 1000 µM

Structure (SMILES): Cn1c(=O)c2c(nc(S(=O)(=O)CC3CC3)n2C)n(Cc2cccc(Cl)c2)c1=O [Compound 137, 3-(3-chlorobenzyl)-8-((cyclopropylmethyl)sulfonyl)-1,7-dimethyl-1H-purine-2,6(3H,7H)-dione]
- EC50 [3]: 1 to 100 µM

Structure (SMILES): CCn1c(SC)nc2c1c(=O)n(C)c(=O)n2C [Compound 73, 7-ethyl-1,3-dimethyl-8-(methylthio)-1H-purine-2,6(3H,7H)-dione]
- EC50 [2]: 1 to 1000 µM

Structure (SMILES): CCCNS(=O)(=O)c1nc2c(c(=O)n(C)c(=O)n2C)n1C [Compound 58]
- EC50 [1]: 10 to 100 µM

Structure (SMILES): Cn1c(=O)c2c(nc(S(C)(=O)=O)n2C)n(Cc2ccccc2)c1=O [Compound 103, 3-benzyl-1,7-dimethyl-8-(methylsulfonyl)-1H-purine-2,6(3H,7H)-dione]
- EC50 [3]: 1 to 100 µM

Structure (SMILES): Cn1c(=O)c2c(nc(S(=O)(=O)CC3CC3)n2C)n(CC#Cc2cc(NC(=O)C3CC3)cc(NC(=O)C3CC3)c2)c1=O [Compound 30]
- EC50 [1]: 0.001 to 0.1 µM

Structure (SMILES): Cn1c(=O)c2c(nc(S(=O)(=O)CC3CC3)n2C)n(Cc2ccc(F)cc2)c1=O [Compound 135, 8-((cyclopropylmethyl)sulfonyl)-3-(4-fluorobenzyl)-1,7-dimethyl-1H-purine-2,6(3H,7H)-dione]
- EC50 [3]: 1 to 100 µM

Structure (SMILES): Cn1c(=O)c2c(nc(S(=O)(=O)CC3CC3)n2C)n(CC#Cc2cccc(NCCN3CCOCC3)c2)c1=O [Compound 19]
- EC50 [1]: 0.001 to 0.1 µM
